According to ChEMBL document CHEMBL1201862, “PubChem BioAssay data set” (2004):
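Five compound concentrations were applied to cells in 96-well plates for 48 hours; endpoints were derived by simple linear interpolation of the resulting dose-response curve. Here, GI50 denotes the concentration required for 50% inhibition of growth.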 The source made the active and inactive calls. Rule as the data show it: active = GI50 up to about 1.1 µM and inactive = higher.

Legend:
Experiment in all cases: NCI anticancer screen, dose series, 48 h
[1] = system: 786-0
[2] = system: A549
[3] = system: BT-549
[4] = system: CAKI-1
[5] = system: CCRF-CEM
[6] = system: COLO 205
[7] = system: DU-145
[8] = system: EKVX
[9] = system: HCC 2998
[10] = system: HCT-116
[11] = system: HCT-15
[12] = system: HL-60
[13] = system: HOP-62
[14] = system: HOP-92
[15] = system: HT-29
[16] = system: Hs-578T
[17] = system: IGROV-1
[18] = system: K562
[19] = system: KM12
[20] = system: LOX IMVI
[21] = system: M14
[22] = system: MCF7
[23] = system: MDA-MB-231
[24] = system: MDA-MB-435
[25] = system: MDA-N
[26] = system: MOLT-4
[27] = system: Malme-3M
[28] = system: NCI-H226
[29] = system: NCI-H23
[30] = system: NCI-H460
[31] = system: NCI-H522
[32] = system: NCI/ADR-RES
[33] = system: OVCAR-3
[34] = system: OVCAR-4
[35] = system: OVCAR-8
[36] = system: PC-3
[37] = system: RPMI-8226
[38] = system: RXF 393
[39] = system: SF-268
[40] = system: SF-295
[41] = system: SF-539
[42] = system: SK-MEL-28
[43] = system: SK-MEL-2
[44] = system: SK-MEL-5
[45] = system: SK-OV-3
[46] = system: SN12C
[47] = system: SNB-19
[48] = system: SNB-75
[49] = system: SR
[50] = system: SW-620
[51] = system: T47D
[52] = system: TK-10
[53] = system: U-251
[54] = system: UACC-257
[55] = system: UACC-62
[56] = system: UO-31
[57] = system: A498
[58] = system: ACHN
[59] = system: OVCAR-5

Q: `CC(=O)OCC1CCC(=C2C(=O)OC(C)(C)OC2=O)N1` (configuration not stated) was tested. Which GI50 [1] did it give?
A: Its GI50 is > 100 µM (inactive).

Q: And the GI50 [2]?
A: Its GI50 is > 100 µM (inactive).

Q: What about the GI50 [3] of the same molecule?
A: The GI50 was > 100 µM (inactive).

Q: And the GI50 [4]?
A: The GI50 was > 100 µM (inactive).

Q: What about the GI50 [5] of the same molecule?
A: The GI50 was > 100 µM (inactive).

Q: And the GI50 [6]?
A: The GI50 was > 100 µM (inactive).

Q: And the GI50 [7]?
A: Its GI50 is > 100 µM (inactive).

Q: What about the GI50 [8] of the same molecule?
A: The GI50 was > 100 µM (inactive).

Q: And the GI50 [9]?
A: The GI50 was > 100 µM (inactive).

Q: And the GI50 [10]?
A: Its GI50 is > 100 µM (inactive).

Q: And the GI50 [11]?
A: Its GI50 is over 100 µM.

Q: And the GI50 [12]?
A: Its GI50 is > 100 µM (inactive).

Q: And the GI50 [13]?
A: Its GI50 is > 100 µM (inactive).

Q: What about the GI50 [14] of the same molecule?
A: Its GI50 is > 100 µM (inactive).

Q: What about the GI50 [15] of the same molecule?
A: Its GI50 is > 100 µM (inactive).

Q: What about the GI50 [16] of the same molecule?
A: Its GI50 is > 100 µM (inactive).

Q: What about the GI50 [17] of the same molecule?
A: The GI50 was > 100 µM (inactive).

Q: And the GI50 [18]?
A: Its GI50 is > 100 µM (inactive).

Q: And the GI50 [19]?
A: The GI50 was > 100 µM (inactive).

Q: What about the GI50 [20] of the same molecule?
A: Its GI50 is > 100 µM (inactive).

Q: And the GI50 [21]?
A: Its GI50 is > 100 µM (inactive).

Q: And the GI50 [22]?
A: The GI50 was > 100 µM (inactive).

Q: What about the GI50 [23] of the same molecule?
A: Its GI50 is > 100 µM (inactive).

Q: What about the GI50 [24] of the same molecule?
A: Its GI50 is > 100 µM (inactive).

Q: And the GI50 [25]?
A: Its GI50 is > 100 µM (inactive).

Q: And the GI50 [26]?
A: Its GI50 is > 100 µM (inactive).

Q: And the GI50 [27]?
A: The GI50 was > 100 µM (inactive).

Q: What about the GI50 [28] of the same molecule?
A: The GI50 was > 100 µM (inactive).

Q: And the GI50 [29]?
A: The GI50 was > 100 µM (inactive).

Q: And the GI50 [30]?
A: Its GI50 is > 100 µM (inactive).

Q: And the GI50 [31]?
A: The GI50 was > 100 µM (inactive).

Q: And the GI50 [32]?
A: The GI50 was > 100 µM (inactive).

Q: And the GI50 [33]?
A: Its GI50 is > 100 µM (inactive).

Q: What about the GI50 [34] of the same molecule?
A: The GI50 was > 100 µM (inactive).

Q: What about the GI50 [35] of the same molecule?
A: Its GI50 is > 100 µM (inactive).

Q: And the GI50 [36]?
A: Its GI50 is > 100 µM (inactive).

Q: And the GI50 [37]?
A: The GI50 was > 100 µM (inactive).

Q: What about the GI50 [38] of the same molecule?
A: Its GI50 is > 100 µM (inactive).

Q: And the GI50 [39]?
A: Its GI50 is > 100 µM (inactive).

Q: What about the GI50 [40] of the same molecule?
A: The GI50 was > 100 µM (inactive).

Q: And the GI50 [41]?
A: Its GI50 is > 100 µM (inactive).

Q: And the GI50 [42]?
A: Its GI50 is > 100 µM (inactive).

Q: What about the GI50 [43] of the same molecule?
A: The GI50 was > 100 µM (inactive).

Q: And the GI50 [44]?
A: Its GI50 is > 100 µM (inactive).

Q: What about the GI50 [45] of the same molecule?
A: The GI50 was > 100 µM (inactive).

Q: And the GI50 [46]?
A: Its GI50 is > 100 µM (inactive).

Q: And the GI50 [47]?
A: The GI50 was > 100 µM (inactive).

Q: What about the GI50 [48] of the same molecule?
A: Its GI50 is > 100 µM (inactive).

Q: And the GI50 [49]?
A: Its GI50 is > 100 µM (inactive).

Q: And the GI50 [50]?
A: The GI50 was > 100 µM (inactive).

Q: And the GI50 [51]?
A: Its GI50 is > 100 µM (inactive).

Q: What about the GI50 [52] of the same molecule?
A: Its GI50 is > 100 µM (inactive).

Q: What about the GI50 [53] of the same molecule?
A: Its GI50 is > 100 µM (inactive).

Q: What about the GI50 [54] of the same molecule?
A: Its GI50 is > 100 µM (inactive).

Q: What about the GI50 [55] of the same molecule?
A: Its GI50 is > 100 µM (inactive).

Q: What about the GI50 [56] of the same molecule?
A: The GI50 was > 100 µM (inactive).

Q: Which results are given for `Cc1nn(C(=O)c2ccncc2)c2c1C(c1ccc([N+](=O)[O-])cc1)SC(=N)N2` (configuration not stated)?
A: GI50 [1]: > 100 µM (inactive); GI50 [57]: > 100 µM (inactive); GI50 [2]: > 100 µM (inactive); GI50 [58]: > 100 µM (inactive); GI50 [3]: > 100 µM (inactive); GI50 [5]: > 100 µM (inactive); GI50 [6]: > 100 µM (inactive); GI50 [7]: > 100 µM (inactive); GI50 [8]: > 100 µM (inactive); GI50 [10]: > 100 µM (inactive); GI50 [11]: > 100 µM; GI50 [12]: > 100 µM (inactive); GI50 [13]: > 100 µM (inactive); GI50 [14]: > 100 µM (inactive); GI50 [15]: > 100 µM (inactive); GI50 [16]: > 100 µM (inactive); GI50 [17]: > 100 µM (inactive); GI50 [18]: > 100 µM (inactive); GI50 [19]: > 100 µM (inactive); GI50 [20]: > 100 µM (inactive); GI50 [21]: > 100 µM (inactive); GI50 [22]: > 100 µM (inactive); GI50 [23]: > 100 µM (inactive); GI50 [24]: > 100 µM (inactive); GI50 [25]: > 100 µM (inactive); GI50 [26]: > 100 µM (inactive); GI50 [27]: > 100 µM (inactive); GI50 [28]: > 100 µM (inactive); GI50 [29]: > 100 µM (inactive); GI50 [30]: > 100 µM (inactive); GI50 [32]: > 100 µM (inactive); GI50 [33]: > 100 µM (inactive); GI50 [34]: > 100 µM (inactive); GI50 [59]: > 100 µM (inactive); GI50 [35]: > 100 µM (inactive); GI50 [36]: > 100 µM (inactive); GI50 [37]: > 100 µM (inactive); GI50 [38]: > 100 µM (inactive); GI50 [39]: > 100 µM (inactive); GI50 [40]: > 100 µM (inactive); GI50 [41]: > 100 µM (inactive); GI50 [42]: > 100 µM (inactive); GI50 [43]: > 100 µM (inactive); GI50 [44]: > 100 µM (inactive); GI50 [45]: > 100 µM (inactive); GI50 [46]: > 100 µM (inactive); GI50 [47]: > 100 µM (inactive); GI50 [48]: > 100 µM (inactive); GI50 [49]: > 100 µM (inactive); GI50 [50]: > 100 µM (inactive); GI50 [51]: > 100 µM (inactive); GI50 [52]: > 100 µM (inactive); GI50 [53]: > 100 µM (inactive); GI50 [54]: > 100 µM (inactive); GI50 [55]: > 100 µM (inactive); GI50 [56]: > 100 µM (inactive)
